Source: ChEMBL document CHEMBL5537169, “Structure-Activity Relationships and Discovery of (S)-6-Isopropyl-2-methoxy-3-(3-methoxypropoxy)-10-oxo-5,10-dihydro-6H-pyrido[1,2-h][1,7]naphthyridine-9-carboxylic Acid (AB-452), a Novel Orally Available HBV RNA Destabilizer” (J Med Chem, 2024)

What was measured:
Hepatitis B virus = experiment: Antiviral activity against HBV infected in human HepG2.2.15 cells assessed as inhibition of HBsAg level incubated for 6 days by microplate-based chemiluminescence immunoassay; type: functional, organism-based; conditions: HepG2 2.2.15, 144 h
HepG2 2.2.15 = experiment: Cytotoxicity against human HepG2.2.15 cells by Cell-titer Glo luminescent assay; type: functional
[1] = Oral bioavailability in Sprague-Dawley rat at 10 mg/kg measured at 0.083 to 24 hrs by LC-MS/MS analysis; type: ADME, organism-based; conditions: in vivo, time 0.083-24 hrs; for F: po, 10 mg/kg
[2] = Clearance in Sprague-Dawley rat at 2 mg/kg,iv measured at 0.083 to 24 hrs post administration by LC-MS/MS analysis; type: ADME, organism-based; conditions: in vivo, time 0.083-24 hrs
[3] = Half life in Sprague-Dawley rat at 10 mg/kg,po measured at 0.083 to 24 hrs post administration by LC-MS/MS analysis; type: ADME, organism-based; conditions: in vivo, time 0.083-24 hrs; for half-life: Sprague-Dawley
[4] = Cmax in Sprague-Dawley rat at 10 mg/kg,po measured at 0.083 to 24 hrs post administration by LC-MS/MS analysis; type: ADME, organism-based; conditions: in vivo, time 0.083-24 hrs
[5] = Drug accumulation in Sprague-Dawley rat liver assessed as fold change in drug uptake at 10 mg/kg,po measured at 0.083 to 24 hrs post administration by LC-MS/MS analysis; type: ADME, organism-based; conditions: in vivo, time 0.083-24 hrs
[6] = Apparent volume of distribution at steady state in CD-1 mouse at 2 mg/kg,iv measured at 0.083 to 24 hrs post administration by LC-MS/MS analysis; type: ADME, organism-based; conditions: in vivo, time 0.083-24 hrs, read-out: Vdss(app)
[7] = AUCinfinity in Sprague-Dawley rat at 2 mg/kg,iv measured at 0.083 to 24 hrs post administration by LC-MS/MS analysis; type: ADME, organism-based; conditions: in vivo, time 0.083-24 hrs
[8] = Oral bioavailability in CD-1 mouse at 10 mg/kg measured at 0.083 to 24 hrs by LC-MS/MS analysis; type: ADME, organism-based; conditions: in vivo, time 0.083-24 hrs
[9] = Cmax in Sprague-Dawley rat at 2 mg/kg,iv measured at 0.083 to 24 hrs post administration by LC-MS/MS analysis; type: ADME, organism-based; conditions: in vivo, time 0.083-24 hrs
[10] = Half life in CD-1 mouse at 10 mg/kg,po measured at 0.083 to 24 hrs post administration by LC-MS/MS analysis; type: ADME, organism-based; conditions: in vivo, time 0.083-24 hrs
[11] = Apparent volume of distribution at steady state in Sprague-Dawley rat at 2 mg/kg,iv measured at 0.083 to 24 hrs post administration by LC-MS/MS analysis; type: ADME, organism-based; conditions: in vivo, time 0.083-24 hrs, read-out: Vdss(app)
[12] = Half life in Sprague-Dawley rat at 2 mg/kg,iv measured at 0.083 to 24 hrs post administration by LC-MS/MS analysis; type: ADME, organism-based; conditions: in vivo, time 0.083-24 hrs
[13] = Drug accumulation in CD-1 mouse liver assessed as fold change in drug uptake at 10 mg/kg,po measured at 0.083 to 24 hrs post administration by LC-MS/MS analysis; type: ADME, organism-based; conditions: in vivo, time 0.083-24 hrs
[14] = AUCinfinity in CD-1 mouse at 10 mg/kg,po measured at 0.083 to 24 hrs post administration by LC-MS/MS analysis; type: ADME, organism-based; conditions: in vivo, time 0.083-24 hrs
[15] = AUCinfinity in CD-1 mouse at 2 mg/kg,iv measured at 0.083 to 24 hrs post administration by LC-MS/MS analysis; type: ADME, organism-based; conditions: in vivo, time 0.083-24 hrs
[16] = Cmax in CD-1 mouse at 10 mg/kg,po measured at 0.083 to 24 hrs post administration by LC-MS/MS analysis; type: ADME, organism-based; conditions: in vivo, time 0.083-24 hrs
[17] = Cmax in CD-1 mouse at 2 mg/kg,iv measured at 0.083 to 24 hrs post administration by LC-MS/MS analysis; type: ADME, organism-based; conditions: in vivo, time 0.083-24 hrs
[18] = Drug accumulation in Sprague-Dawley rat plasma assessed as fold change in drug uptake at 10 mg/kg,po measured at 0.083 to 24 hrs post administration by LC-MS/MS analysis; type: ADME, organism-based; conditions: in vivo, time 0.083-24 hrs
[19] = Clearance in CD-1 mouse at 2 mg/kg,iv measured at 0.083 to 24 hrs post administration by LC-MS/MS analysis; type: ADME, organism-based; conditions: in vivo, time 0.083-24 hrs
[20] = Half life in CD-1 mouse at 2 mg/kg,iv measured at 0.083 to 24 hrs post administration by LC-MS/MS analysis; type: ADME, organism-based; conditions: in vivo, time 0.083-24 hrs
[21] = AUCinfinity in Sprague-Dawley rat at 10 mg/kg,po measured at 0.083 to 24 hrs post administration by LC-MS/MS analysis; type: ADME, organism-based; conditions: in vivo, time 0.083-24 hrs; for AUC: po, 10 mg/kg
[22] = Drug accumulation in CD-1 mouse plasma assessed as fold change in drug uptake at 10 mg/kg,po measured at 0.083 to 24 hrs post administration by LC-MS/MS analysis; type: ADME, organism-based; conditions: in vivo, time 0.083-24 hrs
[23] = Clearance in human liver microsomes at 0.3 uM pre-incubated for 10 mins followed by NADPH addition incubated for 60 mins by LC-MS/MS analysis; type: ADME, Microsome; conditions: time 70 min, read-out: CLH
[24] = Clearance in CD-1 mouse liver microsomes at 0.3 uM pre-incubated for 10 mins followed by NADPH addition incubated for 60 mins by LC-MS/MS analysis; type: ADME, Microsome; conditions: time 70 min, read-out: CLH
[25] = Drug accumulation in Sprague-Dawley rat liver at 10 mg/kg,po measured at 0.083 to 24 hrs post administration by LC-MS/MS analysis; type: ADME, organism-based; conditions: in vivo, time 0.083-24 hrs
[26] = Tmax in Sprague-Dawley rat at 10 mg/kg,po measured at 0.083 to 24 hrs post administration by LC-MS/MS analysis; type: ADME, organism-based; conditions: in vivo, po, 10 mg/kg, time 0.083-24 hrs
[27] = Tmax in CD-1 mouse at 10 mg/kg,po measured at 0.083 to 24 hrs post administration by LC-MS/MS analysis; type: ADME, organism-based; conditions: in vivo, time 0.083-24 hrs
[28] = Apparent volume of distribution at steady state in CD-1 mouse at 10 mg/kg,po measured at 0.083 to 24 hrs post administration by LC-MS/MS analysis; type: ADME, organism-based; conditions: in vivo, time 0.083-24 hrs
[29] = Apparent volume of distribution at steady state in Sprague-Dawley rat at 10 mg/kg,po measured at 0.083 to 24 hrs post administration by LC-MS/MS analysis; type: ADME, organism-based; conditions: in vivo, time 0.083-24 hrs
[30] = Drug accumulation in CD-1 mouse liver at 10 mg/kg,po measured at 0.083 to 24 hrs post administration by LC-MS/MS analysis; type: ADME, organism-based; conditions: in vivo, time 0.083-24 hrs

COCCOc1cc2c(cc1Cl)-c1cc(=O)c(C(=O)O)cn1[C@@H](C(C)C)CO2
EC50 (Hepatitis B virus): 0.78 µM
CC50 (HepG2 2.2.15): > 50 µM

COCCCOc1cc2c(nc1OC)-c1cc(=O)c(C(=O)O)cn1[C@](C)(C(C)C)C2
bioavailability ([1]; Sprague-Dawley): 82%
EC50 (Hepatitis B virus): 0.008 µM
clearance [2]: 1.32 L/h/kg
half-life [3]: 4.4 h
Cmax ([4]; Sprague-Dawley, read-out: Cmax): 0.965 µg/mL
fold change (FC) [5]: 15
Vd [6]: 4 L/kg
AUC(0-inf) ([7]; Sprague-Dawley): 1.57 µg·h/mL
bioavailability [8]: 136%
Cmax [9]: 1.59 µg/mL
half-life [10]: 4.5 h
Vd [11]: 2.7 L/kg
half-life [12]: 4.4 h
fold change (FC) [13]: 1
CC50 (HepG2 2.2.15): > 50 µM
AUC(0-inf) [14]: 4.16 µg·h/mL
AUC(0-inf) [15]: 0.615 µg·h/mL
Cmax [16]: 0.639 µg/mL
Cmax [17]: 0.47 µg/mL
fold change (FC) [18]: 2.7
clearance [19]: 3.3 L/h/kg
half-life [20]: 1.5 h
AUC(0-inf) ([21]; Sprague-Dawley): 6.48 µg·h/mL
fold change (FC) [22]: 0.1

COc1cc2c(nc1OC)-c1cc(=O)c(C(=O)O)cn1[C@H](C(C)C)C2
EC50 (Hepatitis B virus): 0.007 µM
CC50 (HepG2 2.2.15): > 50 µM

COc1nc2c(cc1OCCCO)C[C@@H](C(C)C)n1cc(C(=O)O)c(=O)cc1-2
EC50 (Hepatitis B virus): 0.007 µM
CC50 (HepG2 2.2.15): > 50 µM

COCCCOc1cc2c([nH]c1=O)-c1cc(=O)c(C(=O)O)cn1[C@H](C(C)C)C2
EC50 (Hepatitis B virus): 0.45 µM
CC50 (HepG2 2.2.15): > 50 µM

COc1cc2c(cc1Cl)-c1cc(=O)c(C(=O)O)cn1[C@@H](C(C)C)CO2
EC50 (Hepatitis B virus): 3.5 µM
CC50 (HepG2 2.2.15): > 50 µM

COc1cccc(Cn2cc(C(C)C)n3cc(C(=O)O)c(=O)cc3c2=O)c1
EC50 (Hepatitis B virus): 5 µM

CCC1(C(C)C)Cc2cc(OCCCOC)c(OC)nc2-c2cc(=O)c(C(=O)O)cn21 (stereo unspecified)
EC50 (Hepatitis B virus): 0.006 µM
CC50 (HepG2 2.2.15): > 50 µM

COc1cc2c(cc1Cl)-c1cc(=O)c(C(=O)O)cn1C(C(C)C)CO2 (stereo unspecified)
EC50 (Hepatitis B virus): 0.076 µM
CC50 (HepG2 2.2.15): 46 µM

CC(C)[C@@H]1COc2cc(OCC(F)(F)F)c(Cl)cc2-c2cc(=O)c(C(=O)O)cn21
EC50 (Hepatitis B virus): 0.087 µM
microsomal CLint at 0.3 µM [23]: 4 µL/min/mg
CC50 (HepG2 2.2.15): 36 µM

COCCCOc1cc2c(cc1C)-c1cc(=O)c(C(=O)O)cn1[C@H](C(C)C)CO2
EC50 (Hepatitis B virus): 0.039 µM
microsomal CLint at 0.3 µM [24]: 4 µL/min/mg
microsomal CLint at 0.3 µM [23]: 8 µL/min/mg
CC50 (HepG2 2.2.15): 39 µM

COCCCOc1cc2c(cc1C1CC1)-c1cc(=O)c(C(=O)O)cn1[C@H](C(C)C)CO2
Ct [25]: 20 ng/g
F [1]: 13%
Tmax [26]: 3.1 h
Tmax [27]: 4.8 h
EC50 (Hepatitis B virus): 0.006 µM
t1/2 ([3]; po, 10 mg/kg): 1 h
Cmax ([4]; po, 10 mg/kg): 0.488 µg/mL
Vdss(app) [28]: 0.8 L/kg
microsomal CLint at 0.3 µM [24]: 1 µL/min/mg
bioavailability [8]: 69%
half-life [10]: 0.9 h
CC50 (HepG2 2.2.15): 42 µM
AUC(0-inf) [14]: 8.41 µg·h/mL
Cmax [16]: 0.914 µg/mL
clearance [19]: 0.84 L/h/kg
AUC [21]: 3.95 µg·h/mL
Vdss(app) [29]: 0.3 L/kg
Ct [30]: 575 ng/g

COCCCOc1cc2c(nc1OC)-c1cc(=O)c(C(=O)O)cn1[C@](C)(C(C)(C)C)C2
F [1]: 56%
EC50 (Hepatitis B virus): 0.001 µM
clearance [2]: 2.4 L/h/kg
half-life [3]: 5.2 h
Cmax ([4]; Sprague-Dawley, read-out: Cmax): 0.274 µg/mL
fold change (FC) [5]: 35
Vd [6]: 4 L/kg
AUC ([7]; iv, 2 mg/kg): 1.199 µg·h/mL
bioavailability [8]: 92%
Cmax [9]: 1.68 µg/mL
half-life [10]: 3.7 h
Vd [11]: 3.1 L/kg
half-life [12]: 2.9 h
fold change (FC) [13]: 41
CC50 (HepG2 2.2.15): 41 µM
AUC(0-inf) [14]: 4.36 µg·h/mL
AUC(0-inf) [15]: 0.914 µg·h/mL
Cmax [16]: 0.653 µg/mL
Cmax [17]: 0.834 µg/mL
fold change (FC) [18]: 7.4
clearance [19]: 1.74 L/h/kg
half-life [20]: 1.7 h
AUC [21]: 1.666 µg·h/mL
fold change (FC) [22]: 4

CC(C)[C@@H]1COc2cc(OCCCCO)c(Cl)cc2-c2cc(=O)c(C(=O)O)cn21
EC50 (Hepatitis B virus): 0.014 µM
microsomal CLint at 0.3 µM [24]: 1 µL/min/mg
CC50 (HepG2 2.2.15): > 50 µM

C=Cc1cc2c(cc1OCCCOC)OC[C@@H](C(C)C)n1cc(C(=O)O)c(=O)cc1-2
EC50 (Hepatitis B virus): 0.004 µM
CC50 (HepG2 2.2.15): 33 µM

CC(C)[C@@H]1COc2cc(OCC(C)(C)CO)c(Cl)cc2-c2cc(=O)c(C(=O)O)cn21
EC50 (Hepatitis B virus): 0.012 µM
microsomal CLint at 0.3 µM [24]: 17 µL/min/mg
CC50 (HepG2 2.2.15): > 50 µM
